# Measurements taken from ChEMBL document CHEMBL1201862, “PubChem BioAssay data set” (2004).
#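 Following 48 hours of exposure in 96-well plates, responses at five concentrations were used to interpolate endpoints linearly. Abbreviation: GI50, concentration required for 50% inhibition of growth.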 Calls of active or inactive are those of the source. Rule as the data show it: active = GI50 up to about 1.1 µM and inactive = higher.
# Key:
# Experiment in all cases: DTP human tumour cell line panel, 48 h
# [1] = test system: SF-268
# [2] = test system: UACC-62
# [3] = test system: IGROV-1
# [4] = test system: MOLT-4
# [5] = test system: HCT-15
# [6] = test system: EKVX
# [7] = test system: ACHN
# [8] = test system: COLO 205
# [9] = test system: HCT-116
# [10] = test system: MDA-MB-231
# [11] = test system: NCI-H522
# [12] = test system: HT-29
# [13] = test system: SF-539
# [14] = test system: U-251
# [15] = test system: MDA-N
# [16] = test system: OVCAR-4
# [17] = test system: BT-549
# [18] = test system: DU-145
# [19] = test system: RXF 393
# [20] = test system: KM12
# [21] = test system: OVCAR-3
# [22] = test system: LOX IMVI
# [23] = test system: SNB-19
# [24] = test system: OVCAR-8
# [25] = test system: SN12C
# [26] = test system: MCF7
# [27] = test system: NCI/ADR-RES
# [28] = test system: NCI-H460
# [29] = test system: Hs-578T
# [30] = test system: SR
# [31] = test system: RPMI-8226
# [32] = test system: SK-OV-3
# [33] = test system: 786-0
# [34] = test system: TK-10
# [35] = test system: MDA-MB-435
# [36] = test system: SK-MEL-5
# [37] = test system: SW-620
# [38] = test system: SNB-75
# [39] = test system: PC-3
# [40] = test system: UACC-257
# [41] = test system: K562
# [42] = test system: HOP-92
# [43] = test system: A549
# [44] = test system: M14
# [45] = test system: UO-31
# [46] = test system: CAKI-1
# [47] = test system: OVCAR-5
# [48] = test system: SF-295
# [49] = test system: HCC 2998
# [50] = test system: SK-MEL-2
# [51] = test system: NCI-H23
# [52] = test system: CCRF-CEM
# [53] = test system: HL-60
# [54] = test system: NCI-H226
# [55] = test system: A498
# [56] = test system: HOP-62
# [57] = test system: Malme-3M
# [58] = test system: SK-MEL-28
compound,measurement,setting,value
COc1c(C)c(C/C=C(\C)CCCCO)c(OC)c2ccccc12,GI50,[1],44 µM (inactive)
same,GI50,[2],49.2 µM (inactive)
same,GI50,[3],65.8 µM (inactive)
same,GI50,[4],21.2 µM (inactive)
same,GI50,[5],31.6 µM
same,GI50,[6],61.5 µM (inactive)
same,GI50,[7],36.1 µM (inactive)
same,GI50,[8],38.2 µM (inactive)
same,GI50,[9],28.9 µM (inactive)
same,GI50,[10],40.6 µM (inactive)
same,GI50,[11],19.1 µM (inactive)
same,GI50,[12],20.4 µM (inactive)
same,GI50,[13],52.8 µM (inactive)
same,GI50,[14],64.4 µM (inactive)
same,GI50,[15],42.2 µM (inactive)
same,GI50,[16],38.5 µM (inactive)
same,GI50,[17],46.7 µM (inactive)
same,GI50,[18],45.3 µM (inactive)
same,GI50,[19],79.6 µM (inactive)
same,GI50,[20],23.9 µM (inactive)
same,GI50,[21],62.4 µM (inactive)
same,GI50,[22],18.8 µM (inactive)
same,GI50,[23],> 100 µM (inactive)
same,GI50,[24],33.1 µM (inactive)
same,GI50,[25],23.4 µM (inactive)
same,GI50,[26],38.5 µM (inactive)
same,GI50,[27],42.6 µM (inactive)
same,GI50,[28],20.6 µM (inactive)
same,GI50,[29],30.2 µM (inactive)
same,GI50,[30],26.3 µM (inactive)
same,GI50,[31],> 100 µM (inactive)
same,GI50,[32],> 100 µM (inactive)
same,GI50,[33],38 µM (inactive)
same,GI50,[34],63.8 µM (inactive)
same,GI50,[35],32.6 µM (inactive)
same,GI50,[36],16.9 µM (inactive)
same,GI50,[37],57.3 µM (inactive)
same,GI50,[38],33 µM (inactive)
same,GI50,[39],34.4 µM (inactive)
same,GI50,[40],33.8 µM (inactive)
same,GI50,[41],29.4 µM (inactive)
same,GI50,[42],21.4 µM (inactive)
same,GI50,[43],36.1 µM (inactive)
same,GI50,[44],37.2 µM (inactive)
same,GI50,[45],30.1 µM (inactive)
same,GI50,[46],17.9 µM (inactive)
same,GI50,[47],83.8 µM (inactive)
same,GI50,[48],41.4 µM (inactive)
same,GI50,[49],23.3 µM (inactive)
same,GI50,[50],83.6 µM (inactive)
same,GI50,[51],29.7 µM (inactive)
same,GI50,[52],28.8 µM (inactive)
COc1cc(C2c3cc4c(cc3OC(O)C2C)OCO4)cc(OC)c1OC (stereo not given),GI50,[1],1.51 µM (inactive)
same,GI50,[2],0.349 µM (active)
same,GI50,[3],0.553 µM (active)
same,GI50,[4],0.473 µM (active)
same,GI50,[53],0.172 µM (active)
same,GI50,[5],0.403 µM
same,GI50,[6],1.53 µM (inactive)
same,GI50,[7],0.792 µM (active)
same,GI50,[8],0.315 µM (active)
same,GI50,[9],0.349 µM (active)
same,GI50,[10],0.532 µM (active)
same,GI50,[11],0.207 µM (active)
same,GI50,[54],0.708 µM (active)
same,GI50,[12],0.346 µM (active)
same,GI50,[13],0.294 µM (active)
same,GI50,[14],0.33 µM (active)
same,GI50,[15],0.0887 µM (active)
same,GI50,[16],2.8 µM (inactive)
same,GI50,[17],1.14 µM (inactive)
same,GI50,[18],0.414 µM (active)
same,GI50,[19],0.244 µM (active)
same,GI50,[20],0.347 µM (active)
same,GI50,[21],0.243 µM (active)
same,GI50,[22],0.69 µM (active)
same,GI50,[23],0.434 µM (active)
same,GI50,[24],0.245 µM (active)
same,GI50,[25],0.446 µM (active)
same,GI50,[26],0.29 µM (active)
same,GI50,[27],0.214 µM (active)
same,GI50,[28],0.355 µM (active)
same,GI50,[29],0.31 µM (active)
same,GI50,[30],0.2 µM (active)
same,GI50,[31],0.264 µM (active)
same,GI50,[32],0.414 µM (active)
same,GI50,[55],0.483 µM (active)
same,GI50,[33],0.507 µM (active)
same,GI50,[34],34.9 µM (inactive)
same,GI50,[35],0.0377 µM (active)
same,GI50,[36],0.272 µM (active)
same,GI50,[37],0.292 µM (active)
same,GI50,[38],0.244 µM (active)
same,GI50,[39],0.228 µM (active)
same,GI50,[40],9.68 µM (inactive)
same,GI50,[41],0.142 µM (active)
same,GI50,[42],0.562 µM (active)
same,GI50,[43],0.381 µM (active)
same,GI50,[44],0.376 µM (active)
same,GI50,[45],0.695 µM (active)
same,GI50,[46],0.612 µM (active)
same,GI50,[56],0.306 µM (active)
same,GI50,[47],4.78 µM (inactive)
same,GI50,[48],0.324 µM (active)
same,GI50,[49],0.61 µM (active)
same,GI50,[50],0.486 µM (active)
same,GI50,[51],0.59 µM (active)
same,GI50,[57],0.431 µM (active)
same,GI50,[58],0.863 µM (active)
same,GI50,[52],0.229 µM (active)
